Results: US20240342139A1, “DEVELOPMENT AND OPTIMIZATION OF THIOCHROMENOTHIAZOLE-BASED MSUT2 INHIBITORS AS CANDIDATES FOR THE TREATMENT OF TAUOPATHY” (The United States Government As Represented By the …, priority 2023, published 2024)

Experiments:
[1] = target: T1, MSUT2 (Homo sapiens (Human), UniProt Q6PJT7); test: primary tau-inclusion neuronal assay (MSUT2 inhibitor activity); type: cell-based; conditions: for IC50: dose-dependent activity, primary tau-inclusion neuronal assay; for biological activity in the in vitro assay (SAR summary in words): preliminary SAR summary
Experimental: A variety of analogs in which the tricycle scaffold was modified were prepared and evaluated for their MSUT2 inhibitor activity.
The N-substitution pattern was also explored. The dose-dependent activity of these compounds was determined using a primary tau-inclusion neuronal assay and is summarized in Table 3 below.

[2] = target: T1, MSUT2; test: photo-affinity labelling experiments (PAL probe BL-1138, TAMRA fluorescence SDS-PAGE); type: binding; conditions: for ligand-protein binding mode (decrease in tagging density with competitor): used as competitor against PAL probe BL-1138, full MSUT2 and GST-MSUT2 construct
Text: FIG. 7A and FIG. 7B show representative data from photo-affinity labelling experiments performed using UWK-5 (lanes 1-4) and BL-1122 (lanes 5-8) as competitors. Gel visualized by fluorescence imaging using TAMRA (excitation/emission maxima 546/579 nm).

[3] = target: T1, MSUT2; test: NMR Saturation Transfer Difference studies; type: binding; conditions: 15 μM MSUT2 protein; down-field shift of ligand signals at 4.10 and 3.05 ppm; Kd could not be calculated
Experimental: The concentration of MSUT2 protein is 15 μM. Ratio of ligand to protein is indicated to the left of individual spectra.

[4] = target: MSUT2/poly(A)RNA binding interaction (Homo sapiens (Human), UniProt Q6PJT7); test: high-throughput AlphaScreen, dose-response in vitro; type: biochemical; conditions: AlphaScreen dose-response profile in vitro
Text: MSUT2 has been identified as a therapeutic target for the treatment of tauopathy, and MSUT2 KO has decreased the accumulation of pathological tau and reduced the formation of NFTs in tau-transgenic PS19 mice models. Screening of >100,000 compounds in an AlphaScreen and an orthogonal FP-HTS assay identified a promising thiochromenathiazole-based inhibitor of the MSUT2/poly(A)RNA binding interaction. Preliminary SAR experiments have been conducted to confirm biological activity and to identify novel biologically active compounds of interest. […] Due to challenges in functionalizing an electron-deficient tricycle scaffold, the synthesis of analogues will coincide with an effort towards the optimization of synthetic conditions.

T1 sequence (Q6PJT7 whole entry, species assumed): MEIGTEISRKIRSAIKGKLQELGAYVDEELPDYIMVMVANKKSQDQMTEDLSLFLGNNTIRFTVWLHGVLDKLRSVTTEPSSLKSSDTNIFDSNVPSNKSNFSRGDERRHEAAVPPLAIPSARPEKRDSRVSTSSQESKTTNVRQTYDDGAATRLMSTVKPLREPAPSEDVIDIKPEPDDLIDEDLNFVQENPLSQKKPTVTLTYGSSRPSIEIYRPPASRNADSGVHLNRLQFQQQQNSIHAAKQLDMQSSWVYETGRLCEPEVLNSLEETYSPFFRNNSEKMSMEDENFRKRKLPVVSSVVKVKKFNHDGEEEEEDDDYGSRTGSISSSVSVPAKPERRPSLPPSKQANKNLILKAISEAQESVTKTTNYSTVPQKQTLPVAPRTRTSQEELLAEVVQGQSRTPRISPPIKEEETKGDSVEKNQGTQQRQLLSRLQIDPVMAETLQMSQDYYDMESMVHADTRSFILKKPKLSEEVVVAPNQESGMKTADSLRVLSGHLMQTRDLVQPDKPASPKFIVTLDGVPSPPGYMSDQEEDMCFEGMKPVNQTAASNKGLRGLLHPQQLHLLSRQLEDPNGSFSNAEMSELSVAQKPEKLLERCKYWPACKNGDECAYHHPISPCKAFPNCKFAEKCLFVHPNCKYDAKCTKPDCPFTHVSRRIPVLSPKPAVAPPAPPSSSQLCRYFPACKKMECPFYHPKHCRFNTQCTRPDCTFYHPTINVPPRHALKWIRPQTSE
Chain of MSUT2/poly(A)RNA binding interaction (Q6PJT7 whole entry, species assumed): as above

| Compound | IC50 [1] | biological activity in the in vitro assay (SAR summary in words) [1] | also measured |
| --- | --- | --- | --- |
| CCS(=O)(=O)c1ccc(C(=O)Nc2nc3c(s2)CSCC3)cc1 | 109 µM | eliminates activity |  |
| Nc1nc2c(s1)CSc1ccccc1-2 [BL-0957] | 8.17 µM |  |  |
| Nc1nc2c(s1)COc1ccccc1-2 [BL-0959] | 3.91 µM | tolerated |  |
| Nc1nc2c(s1)CCc1ccccc1-2 [BL-0960] | > 100 µM | loss of biological activity |  |
| Nc1nc2c(s1)CCCc1ccccc1-2 [BL-0961] | > 100 µM | loss of biological activity |  |
| CCS(=O)(=O)c1ccc(C(=O)Nc2nc3c(s2)COc2ccccc2-3)cc1 [BL-0962] | > 100 µM |  |  |
| CCS(=O)(=O)c1ccc(C(=O)Nc2nc3c(s2)CCc2ccccc2-3)cc1 [BL-0963] | 45.1 µM |  |  |
| Nc1nc2c(s1)CSc1c(F)cccc1-2 [BL-0979] | 23.6 µM |  |  |
| Nc1nc2c(s1)CSc1ccc(F)cc1-2 [BL-0980] | 22.9 µM |  |  |
| Nc1nc2c(s1)CSc1cc(F)ccc1-2 [BL-0981] | 22.3 µM |  |  |
| Nc1nc2c(s1)CSc1c(F)cc(F)cc1-2 [BL-1017] | 60.9 µM |  |  |
| Nc1nc2c(s1)CSCC2 [BL-1018] | > 128 µM | eliminates activity |  |
| Fc1ccc(CNc2nc3c(s2)CSc2ccccc2-3)cc1 [BL-1023] | 16.9 µM |  |  |
| O=S(=O)(Nc1nc2c(s1)CSc1ccccc1-2)c1ccccc1 [BL-1027] | 24.7 µM |  |  |
| Fc1ccc(CNc2nc3c(s2)COc2ccccc2-3)cc1 [BL-1038] | 20.8 µM |  |  |
| O=S(=O)(Nc1nc2c(s1)COc1ccccc1-2)c1ccccc1 [BL-1039] | 34.2 µM |  |  |
| CCN(CC)c1ccc(CNc2nc3c(s2)CSc2ccccc2-3)cc1 [BL-1041] | 5.67 µM |  |  |
| CC(C)Cc1ccc(CNc2nc3c(s2)CSc2ccccc2-3)cc1 [BL-1043] | 20.2 µM |  |  |
| CC(C)(C)OC(=O)NCC(=O)Nc1nc2c(s1)CSc1ccccc1-2 [BL-1045] | 45.1 µM |  |  |
| NCC(=O)Nc1nc2c(s1)CSc1ccccc1-2 [BL-1046] | 23 µM |  |  |

| Compound | IC50 [1] | biological activity in the in vitro assay (SAR summary in words) [1] | also measured |
| --- | --- | --- | --- |
| Nc1nc2c(s1)CSc1ncccc1-2 [BL-1047] | 11 µM |  |  |
| Fc1ccc(CNc2nc3c(s2)CCc2ccccc2-3)cc1 [BL-1051] | 21.8 µM |  |  |
| Nc1nc(-c2ccccc2)cs1 [BL-1055] | > 128 µM | eliminates activity |  |
| CCS(=O)(=O)c1ccc(C(=O)Nc2nc(-c3ccccc3)cs2)cc1 [BL-1057] | > 128 µM | eliminates activity |  |
| Nc1nc2c(s1)CS(=O)(=O)c1ccccc1-2 [BL-1075] | > 128 µM | complete loss of biological activity |  |
| COC(=O)CC[C@H](NC(=O)OC(C)(C)C)C(=O)Nc1nc2c(s1)CSc1ccccc1-2 [BL-1081] | 12.3 µM |  |  |
| C#CCNC(=O)Nc1nc2c(s1)CSc1ccccc1-2 [BL-1084] | 23.2 µM |  |  |
| C#CCCNC(=O)Nc1nc2c(s1)CSc1ccccc1-2 [BL-1085] | 12.2 µM | favorable activity |  |
| C#CCOC(=O)Nc1nc2c(s1)CSc1ccccc1-2 [BL-1088] | 14.3 µM | favorable activity |  |
| C#Cc1ccc(CNc2nc3c(s2)CSc2ccccc2-3)cc1 [BL-1092] | 11.7 µM |  |  |
| O=C(NCCS(=O)(=O)O)Nc1nc2c(s1)CSc1ccccc1-2 [BL-1122] | 3.26 µM | favorable activity | ligand-protein binding mode (decrease in tagging density with competitor) [2]: competitive; binding affinity of ligand for MSUT2 protein [3]: tight binding affinity |
| CC(=O)N1N=C(c2ccccc2)SC12CCSc1ccccc12 (stereo not drawn) [BL-1123] | 16 µM |  |  |
| CC1(C)Sc2ccccc2-c2nc(N)sc21 [BL-1124] | 51.7 µM |  |  |
| Nc1nc2c(s1)Cc1ccccc1-2 [BL-1125] | 49.5 µM |  |  |
| CCS(=O)(=O)c1ccc(CNc2nc3c(s2)CSc2ccccc2-3)cc1 [BL-1126] | 13.4 µM |  |  |
| O=C(Nc1ccccc1)Nc1nc2c(s1)CSc1ccccc1-2 [BL-1131] | 32 µM |  |  |
| Cc1ccc(CNc2nc3c(s2)CSc2ccccc2-3)s1 [BL-1132] | 7.73 µM | widely tolerated |  |
| c1ccc(CNc2nc3c(s2)CSc2ccccc2-3)cc1 [BL-1133] | 7.6 µM | widely tolerated |  |
| C#CCCC1(CCNC(=O)Nc2nc3c(s2)CSc2ccccc2-3)N=N1 [BL-1138] |  |  | fluorescence tagging of MSUT2 protein ([2]; PAL probe clicked with TAMRA-biotin-azide): target engagement |
| C=C(Cc1nc2c(s1)CSc1ccccc1-2)c1ccc(S(=O)(=O)CC)cc1 [UWK-5] | 0.586 µM |  | IC50 [4]: 1.1 µM; ligand-protein binding mode (decrease in tagging density with competitor) [2]: competitive |
